IC50 data for 49 compounds are collected here from US8288371B2, “Ortho pyrrolidine, benzyl-substituted heterocycle CCR1 antagonists for autoimmune diseases and inflammation” (Pharmacopeia, LLC, priority 2007, dated 2012).

For this assay, the target named is T1, human CCR1 (Homo sapiens, UniProt P32246).
T1 sequence (P32246 1-355): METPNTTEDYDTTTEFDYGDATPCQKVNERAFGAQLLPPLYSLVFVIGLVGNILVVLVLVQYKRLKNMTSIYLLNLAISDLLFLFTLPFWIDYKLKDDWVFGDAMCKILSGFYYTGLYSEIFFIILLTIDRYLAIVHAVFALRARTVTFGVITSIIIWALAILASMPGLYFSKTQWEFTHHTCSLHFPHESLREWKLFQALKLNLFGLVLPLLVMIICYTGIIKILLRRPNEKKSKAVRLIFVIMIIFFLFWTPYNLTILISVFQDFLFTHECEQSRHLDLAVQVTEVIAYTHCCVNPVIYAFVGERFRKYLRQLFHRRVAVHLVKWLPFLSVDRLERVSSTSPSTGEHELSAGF
The assay can be described thus: CCR1 binding protocol (SPA, [125I]-MIP-1α displacement). Conditions: cell membrane expressing human CCR1, 0.1 nM [125I]-MIP-1α, 4 hours at ambient temperature; read-out: Relative potency (IC50). The method in brief:
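Displacement of 0.1 nM [125I]-MIP-1α (final) from membranes expressing human CCR1 was measured by scintillation proximity after 4 h at ambient temperature. Conditions: pH 7.4 Tris buffer with 0.1% BSA and MnCl, and 0.5 μg membrane per well. Compounds were tested as a 10-step ½-log series from a 10 mM DMSO stock to derive IC50.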
The term IC50 denotes the concentration at which inhibition is half-maximal. Take `Cc1nnc([C@H]2CCCN2C(=O)Nc2ccc(Cl)cn2)n1Cc1ccc(Cl)cc1` [Compound 243]: the IC50 fell in the range of 50 to 500 nM.

As to `CN1C(=O)COc2ccc(NC(=O)N3CCC[C@@H]3c3ncnn3Cc3ccc(Cl)cc3)cc21` [Compound 99], the 50% inhibitory concentration (IC50) is 50 to 500 nM.

Regarding `Cc1nc(C(F)(F)F)ccc1[C@H](C)NC(=O)N1CCC[C@@H]1c1nnc(C)n1Cc1ccc(Cl)cc1` [Compound 624], the IC50 was below 50 nM.

Consider `Cc1nnc([C@H]2CCCN2C(=O)Nc2ccc(Cl)c(C#N)c2)n1Cc1ccc(Cl)cc1` [Compound 487], for which the 50% inhibitory concentration (IC50) is below 50 nM.

As to `Cc1nnc([C@H]2CCCN2C(=O)Nc2ccc(Cl)cc2F)n1Cc1ccc(Br)cc1` [Compound 534], the IC50 is 50 to 500 nM.

For the compound `N#C/N=C(\Nc1ccc(C(F)(F)F)cc1)N1CCC[C@@H]1c1nnc(CO)n1Cc1ccc(Cl)cc1` [Compound 372], the IC50 was in the range of 500 to 5000 nM.

Regarding `Cc1noc(C)c1NC(=O)N1CCC[C@@H]1c1nnc(C)n1Cc1ccc(Br)cc1` [Compound 554], the IC50 lay within 50 to 500 nM.

As for `CNC(=O)c1cc(C)ccc1NC(=O)N1CCC[C@@H]1c1nnc(C)n1Cc1ccc(Cl)cc1` [Compound 279], the 50% inhibitory concentration (IC50) fell in the range of 50 to 500 nM.

Turning to `Cc1nnc([C@H]2C[C@@H](O)CN2C(=O)Nc2ccc(Cl)cc2F)n1Cc1ccc(Cl)cc1` [Compound 390], the IC50 lay within 500 to 5000 nM.

As to `O=C(Nc1ccc(Cl)cc1F)N1C[C@H](O)C[C@@H]1c1nncn1Cc1ccc(Cl)cc1` [Compound 480], the IC50 fell in the range of 50 to 500 nM.

Take `Cc1cc(C(F)(F)F)cc(C)c1NC(=O)N1CCC[C@@H]1c1ncncc1Cc1ccc(Cl)cc1` [Compound 12]: the IC50 was below 50 nM.

`Cc1noc(C)c1NC(=O)N1CCC[C@@H]1c1nnc(CO)n1Cc1ccc(Cl)cc1` [Compound 323]: the IC50 fell in the range of 50 to 500 nM.

Take `Cc1nnc([C@H]2CCCN2C(=O)N[C@@H](C)c2nc3ccccc3o2)n1Cc1ccc(Cl)cc1` [Compound 514]: the IC50 was 50 to 500 nM.

Regarding `Cc1nnc([C@H]2CCCN2C(=O)Nc2ccc(S(=O)(=O)N(C)C)cc2Cl)n1Cc1ccc(Cl)cc1` [Compound 451], the half-inhibitory concentration (IC50) was below 50 nM.

For `Cc1ncnc([C@H]2CCCN2C(=O)Nc2c(C)noc2C)c1Cc1ccc(Cl)cc1` [Compound 19], the IC50 lay within 50 to 500 nM.

On to `Cc1nnc([C@H]2CCCN2C(=O)N[C@H]2CCc3ccc(C(F)(F)F)cc32)n1Cc1ccc(Cl)cc1` [Compound 171], for which the IC50 was in the range of 50 to 500 nM.

Regarding `Cc1noc(C)c1NC(=O)N1CCC[C@@H]1c1nnc(C)n1[C@H](C)c1ccc(Cl)cc1` [Compound 365], the IC50 lay in the range of 50 to 500 nM.

On to `Cc1noc(C)c1NC(=O)N1CCC[C@@H]1c1nnc(Cl)n1Cc1ccc(Cl)cc1` [Compound 259], for which the IC50 is below 50 nM.

Turning to `Cc1nnc([C@H]2CCCN2C(=O)N[C@@H](C)c2ccc(Cl)c(Cl)c2)n1Cc1ccc(Cl)cc1` [Compound 168], the IC50 was below 50 nM.

As for `CNC(=O)c1cccc(NC(=O)N2CCC[C@@H]2c2nnc(C)n2Cc2ccc(Cl)cc2)c1C` [Compound 231], the IC50 lay in the range of 50 to 500 nM.

With `Cc1nnc([C@H]2CCCN2C(=O)NCC2CCN(S(C)(=O)=O)C2)n1Cc1ccc(Cl)cc1` (stereo partly shown) [Compound 593], the concentration for half-maximal inhibition (IC50) lay in the range of 50 to 500 nM.

As for `N#C/N=C(\N[C@H]1CCOc2cc(C(F)(F)F)ccc21)N1CCC[C@@H]1c1nnc(CO)n1Cc1ccc(Cl)cc1` [Compound 373], the IC50 is 50 to 500 nM.

With `Cc1nnc([C@H]2C3CC3CN2C(=O)Nc2ccc(Cl)cc2F)n1Cc1ccc(Cl)cc1` (stereo partly shown) [Compound 565], the half-maximal inhibitory concentration (IC50) lay in the range of 50 to 500 nM.

For the compound `Cc1cc(C(F)(F)F)cc(Br)c1NC(=O)N1CCC[C@@H]1c1ncnn1Cc1ccc(Cl)cc1` [Compound 61], the half-inhibitory concentration (IC50) was below 50 nM.

For `Cc1nnc([C@H]2C[C@@H](O)CN2C(=O)Nc2ccc(C(F)(F)F)cc2)n1Cc1ccc(Cl)cc1` [Compound 391], the IC50 lay in the range of 500 to 5000 nM.

Consider `CC[C@H](NC(=O)N1CCC[C@@H]1c1nnc(C)n1Cc1ccc(F)cc1)c1ccc(C(F)(F)F)cc1` [Compound 577], for which the IC50 is below 50 nM.

Consider `Cc1nnc([C@H]2CCCN2C(=O)N[C@H]2CCOc3cc(C(F)(F)F)ccc32)n1Cc1ccc(Cl)nc1` [Compound 382], for which the IC50 was in the range of 50 to 500 nM.

In the case of `Cc1nnc([C@H]2CCCN2C(=O)Nc2ccc3[nH]ccc3c2)n1Cc1ccc(Cl)cc1` [Compound 603], the IC50 lay within 500 to 5000 nM.

Regarding `Cc1nnc([C@H]2CCCN2C(=O)N[C@H]2CCOc3c2cccc3C(F)(F)F)n1Cc1ccc(Cl)cc1` [Compound 199], the half-inhibitory concentration (IC50) was below 50 nM.

For the compound `Cc1nnc([C@H]2CCCN2C(=O)Nc2c(Cl)nc(N)nc2Cl)n1Cc1ccc(Cl)cc1` [Compound 192], the IC50 is below 50 nM.

Take `Cc1nnc(C2C3CC3CN2C(=O)Nc2ccc(Cl)cc2F)n1Cc1ccc(Cl)cc1` (stereo not shown) [Compound 545]: the IC50 lay within 50 to 500 nM.

For the compound `Cc1nnc([C@H]2CC(F)CN2C(=O)Nc2ccc(Cl)c(C(F)(F)F)c2)n1Cc1ccc(Cl)cc1` (stereo partly shown) [Compound 572], the IC50 lay within 50 to 500 nM.

Consider `N#C/N=C(\Nc1ccc(C(F)(F)F)cc1)N1CCC[C@@H]1c1nccn1Cc1ccc(Cl)cc1` [Compound 42], for which the IC50 lay within 50 to 500 nM.

As to `N#Cc1ccc2c(c1)OCCC2NC(=O)N1CCC[C@@H]1c1ncnn1Cc1ccc(Cl)cc1` (stereo partly shown) [Compound 72], the half-maximal inhibitory concentration (IC50) lay within 50 to 500 nM.

Take `Cc1nnc([C@H]2CCCN2C(=O)Nc2cc(C(=O)N(C)C)ccc2Cl)n1Cc1ccc(Cl)cc1` [Compound 347]: the IC50 was below 50 nM.

On to `Cc1nnc([C@H]2CCCN2C(=O)Nc2cccc(S(C)(=O)=O)c2)n1Cc1ccc(Cl)cc1` [Compound 334], for which the IC50 fell in the range of 500 to 5000 nM.

As for `Cc1nnc([C@H]2CCCN2C(=O)N[C@H]2CCOc3ccc(F)cc32)n1Cc1ccc(Cl)cc1` [Compound 157], the concentration for half-maximal inhibition (IC50) was 50 to 500 nM.

As for `Cc1cc(NC(=O)N2CCC[C@@H]2c2nccn2Cc2ccc(Cl)cc2)c(C(F)(F)F)o1` [Compound 45], the IC50 is 500 to 5000 nM.

In the case of `Cc1nnc([C@H]2CC(F)CN2C(=O)Nc2ccc(Cl)cc2F)n1Cc1ccc(Cl)cc1` (stereo partly shown) [Compound 571], the IC50 fell in the range of 50 to 500 nM.

For the compound `CC[C@H](NC(=O)N1CCC[C@@H]1c1nnc(C)n1Cc1ccc(F)cc1)c1ccc(C(F)(F)F)nc1` [Compound 560], the IC50 was below 50 nM.

For `Cc1nn(C)c(C)c1N/C(=N\C#N)N1CCC[C@@H]1c1nnc(C)n1Cc1ccc(Cl)cc1` [Compound 397], the IC50 was in the range of 50 to 500 nM.

With `Cc1nnc([C@H]2CCCN2C(=O)N[C@H](C)c2ccccc2)n1Cc1ccc(Cl)cc1` [Compound 213], the concentration for half-maximal inhibition (IC50) is below 50 nM.

Regarding `Cc1nnc([C@H]2CCCN2C(=O)Nc2ccc(C(C)C)cc2C(F)(F)F)n1Cc1ccc(Cl)cc1` [Compound 278], the IC50 was below 50 nM.

Regarding `COC1C[C@H](c2nnc(C)n2Cc2ccc(Cl)cc2)N(C(=O)Nc2ccc(C(F)(F)F)nc2C)C1` (stereo partly shown) [Compound 542], the concentration for half-maximal inhibition (IC50) was 50 to 500 nM.

For `Cc1nnc([C@H]2CCCN2C(=O)Cc2cccc(C(F)(F)F)c2)n1Cc1ccc(Cl)cc1` [Compound 461], the IC50 fell in the range of 50 to 500 nM.

Regarding `Cc1nc(C(F)(F)F)ccc1NC(=O)N1C[C@H](O)C[C@@H]1c1nnc(C)n1Cc1ccc(Cl)cc1` [Compound 521], the concentration for half-maximal inhibition (IC50) is below 50 nM.

Take `Cc1nnc([C@H]2CCCN2C(=O)Nc2ccc3ccccc3c2)n1Cc1ccc(Cl)cc1` [Compound 135]: the IC50 is below 50 nM.

For `COC(=O)c1cccc(C)c1NC(=O)N1CCC[C@@H]1c1nnc(C)n1Cc1ccc(Cl)cc1` [Compound 217], the IC50 is below 50 nM.

With `Cc1onc(-c2ccccc2)c1NC(=O)N1CCC[C@@H]1c1nncn1Cc1ccc(Cl)cc1` [Compound 109], the IC50 was below 50 nM.
